Measurements taken from paper PMC9457773 (Molecules, 2022).
Where two headings read alike, the source gives them in different places.

Key:
[1] = rat; for Stability, Bench-Top: measured concentration: 4 h; for Stability, Autosampler: measured concentration: 12 h; for Stability, Long-Term: measured concentration: 30 days
Protocol: (§1) A 5 μL aliquot of the mixed working solution was added to 45 μL of blank plasma to prepare the calibration standards.
(§2) The selectivity of the method was assessed by comparing the chromatograms of six independent blank rat plasma samples, simulated plasma samples in which blank rat plasma samples were spiked with working solution at a lower limit of quantitation (LLOQ) and IS, and actual plasma samples collected from rats. […] Different concentrations of the QC and LLOQ samples, with six replicates at each concentration, were used to evaluate precision and accuracy, and inter-batch precision and accuracy were evaluated by measurements for three consecutive days. The precision was expressed as the coefficient of variation (CV%), and the accuracy was expressed as the relative error (RE%). The extraction recovery was evaluated by comparing the peak areas of blank plasma spiked with working solution pre-extraction and blank plasma spiked with working solution post-extraction. The matrix effect was evaluated by the ratio of the peak area of the analyte in the plasma to the peak area of the analyte in solution at three concentrations of the QC samples. […] Three concentrations of the QC samples, with six replicates at each concentration level, were used to examine the stability of the three analytes at room temperature for 4 h, in the autosampler for 12 h, at −80 °C for 30 days, and freeze–thaw three times.

[2] = literature value, Introduction; cited from earlier work
[3] = literature value, Introduction, cited from earlier work
[4] = literature statement in words, Introduction, cited from earlier work
[5] = Pharmacokinetic and drug–drug interaction study in rats (plasma, UPLC–MS/MS); settings: for AUC(0-inf): AUCinf; for AUC(0-t): AUClast; for CL/F: CLz/F; for Tmax: median (range); for Vd/F: Vz/F; for half-life: t1/2z
Protocol: First, 50 μL of the plasma sample was added to 5 μL of the mixture IS working solution and 500 μL of the extraction reagent (methyl tert-butyl ether and ethyl acetate, 1:4) vortex-mixed for 3 min and then centrifuged at 12,000 rpm for 10 min. Next, 400 μL of supernatant was transferred into a new centrifuge tube, which was blown dry under a stream of nitrogen, and the residue was re-solubilized with 150 μL of 50% acetonitrile–water.
The concentrations of analytes were determined by UPLC–MS/MS, which consisted of an LC-30A ultra-performance liquid chromatography (Shimadzu, Japan), and Sciex Triple Quad 5500 tandem triple quadrupole mass spectrometer (Applied Biosystems Sciex, Framingham, MA, USA). The XSelect HSS T3 column (2.1 mm × 100 mm, 2.5 μm, Waters, Milford, MA, USA) was used for chromatographic separation. Phase A (0.1% formic acid in ultrapure water containing 5 mM ammonium acetate) and phase B (acetonitrile) were used as the mobile phases for gradient elution at 0.35 mL/min.
The experimental animals were randomly divided into five groups (n = 6 per group). […] Approximately 0.25 mL of blood was collected from the orbital venous plexus of rats in pre-heparinized centrifuge tubes. […] Blood samples were centrifuged at 3500 rpm for 10 min, and the plasma was transferred to new centrifuge tubes and then stored at −80 °C.
The Cmax and Tmax (time to maximum plasma concentration) were read directly from the drug concentrations. The other pharmacokinetic parameters were analyzed using a non-compartmental analysis with Phoenix WinNonLin 8.2 software (Pharsight, Mountain View, Certara, CA, USA).

[6] = Stability of QC samples in rat plasma under various storage conditions; settings: for Stability, Autosampler: measured concentration / Stability, Freeze-Thaw: measured concentration / Stability, Bench-Top: measured concentration / Stability, Long-Term: measured concentration: rat plasma QC, n = 6; for Stability, Autosampler: measured concentration: autosampler for 12 h; for Stability, Freeze-Thaw: measured concentration: freeze–thaw three times; for Stability, Bench-Top: measured concentration: room temperature for 4 h; for Stability, Long-Term: measured concentration: −80 °C for 30 days
Protocol: as §1, §2

[7] = Sprague Dawley, rat, plasma, po, 1.2 mg/kg, lenvatinib in rat plasma, lenvatinib 1.2 mg/kg oral co-administered with canagliflozin 10 mg/kg (VLEN+CA), n = 6, mean ± SD
[8] = Sprague Dawley, rat, plasma, po, 1.2 mg/kg, lenvatinib in rat plasma, oral single dose lenvatinib 1.2 mg/kg alone (IILEN), n = 6, mean ± SD
[9] = lenvatinib (1.2 mg/kg) in the presence of canagliflozin (10 mg/kg) compared to lenvatinib alone, rats
[10] = lenvatinib in rat plasma, oral single dose lenvatinib 1.2 mg/kg alone (IILEN), n = 6, mean ± SD
[11] = Sprague Dawley, rat, plasma, po, 100 mg/kg, sorafenib in rat plasma, oral single dose sorafenib 100 mg/kg alone (ISOR), n = 6, mean ± SD
[12] = Sprague Dawley, rat, plasma, po, 100 mg/kg, sorafenib in rat plasma, sorafenib 100 mg/kg oral co-administered with canagliflozin 10 mg/kg (IVSOR+CA), n = 6, mean ± SD

For COc1cc2nccc(Oc3ccc(NC(=O)NC4CC4)c(Cl)c3)c2cc1C(N)=O [lenvatinib, Lenvatinib], the “Stability, Freeze-Thaw: measured concentration” value (from here on “Stability, Freeze-Thaw”) ([1]; 0.5 ng/mL) was 0.53 ± 0.03 ng/mL, the “Stability, Freeze-Thaw” value ([1]; 150 ng/mL) was 157.33 ± 11.02 ng/mL and the “Stability, Freeze-Thaw” value ([1]; 800 ng/mL) was 725.83 ± 18.06 ng/mL. For the same compound, the “Stability, Bench-Top: measured concentration” value (“Stability, Bench-Top” below) ([1]; 0.5 ng/mL) was 0.54 ± 0.03 ng/mL, the “Stability, Bench-Top” value ([1]; 150 ng/mL) was 156.67 ± 7.42 ng/mL and the “Stability, Bench-Top” value ([1]; 800 ng/mL) was 794.00 ± 18.24 ng/mL. For the same compound, the “Stability, Autosampler: measured concentration” value (“Stability, Autosampler” for short) ([1]; 0.5 ng/mL) was 0.53 ± 0.04 ng/mL, the “Stability, Autosampler” value ([1]; 150 ng/mL) was 162.67 ± 7.42 ng/mL and the “Stability, Autosampler” value ([1]; 800 ng/mL) was 819.50 ± 30.36 ng/mL. The “Stability, Long-Term: measured concentration” value (“Stability, Long-Term” below) ([1]; 0.5 ng/mL) was 0.47 ± 0.03 ng/mL, the “Stability, Long-Term” value ([1]; 150 ng/mL) was 157.00 ± 12.63 ng/mL and the “Stability, Long-Term” value ([1]; 800 ng/mL) was 714.00 ± 24.44 ng/mL. For the same compound, the “plasma protein binding rate” value [2] was “approximately 98%”, the half-life [3] was 28 h and the solubility [4] was “low”. The AUC(0-inf) [5, 7] was 7280 ± 1170 ng·h/mL, the AUC(0-t) [5, 7] was 7280 ± 1170 ng·h/mL and the CL/F [5, 7] was 2.83 mL/min/kg. For the same compound, the CL/F [5, 8] was 3.67 mL/min/kg, the Cmax [5, 7] was 985 ± 162 ng/mL and the Cmax [5, 8] was 721 ± 144 ng/mL. For the same compound, the Tmax ([5]; Sprague Dawley, rat, plasma, po, 1.2 mg/kg, Tmax, lenvatinib in rat plasma, oral single dose lenvatinib 1.2 mg/kg alone (IILEN), n = 6) was 1.75 h, the Vd/F [5, 7] was 1.56 ± 0.29 L/kg and the Vd/F [5, 8] was 3.31 ± 1.51 L/kg. For the same compound, the half-life [5, 7] was 6.49 ± 1.04 h, the half-life [5, 8] was 10.5 ± 4.53 h and the “decrease of CLz/F” value [5, 9] was 22.7%. The “decrease of Vz/F” value [5, 9] was 52.9%, the “decrease of t1/2” value [5, 9] was 38% and the “increase of AUCinf” value [5, 9] was 28.9%. For the same compound, the “increase of AUClast” value [5, 9] was 28.9%, the “increase of Cmax” value [5, 9] was 36.2% and the Tmax ([5]; lenvatinib in rat plasma, lenvatinib 1.2 mg/kg oral co-administered with canagliflozin 10 mg/kg (VLEN+CA), n = 6) was 1.50 (0.88–1.63) h. The AUCinf [5, 10] was 5653 ± 1299 ng·h/mL, the AUClast [5, 10] was 5640 ± 1292 ng·h/mL and the “increase of AUC” value ([5]; lenvatinib in the presence of canagliflozin, rats, abstract, AUC not specified as last or inf) was 28.9%.
In the case of CNC(=O)c1cc(Oc2ccc(NC(=O)Nc3ccc(Cl)c(C(F)(F)F)c3)cc2)ccn1 [sorafenib, Sorafenib], the “plasma protein binding rate” value [2] is given as 99.5%, the “time to peak blood concentration” value ([3]; after oral administration) is given as “approximately 3 h” and the solubility [4] is given as “poor”. The permeability ([4]; membrane permeability) was “high”, the “stability during the different processing and storage conditions” value ([6]; rat plasma QC samples, room temperature 4 h, autosampler 12 h, −80 °C 30 days, three freeze–thaw cycles) was “stable” and the “Stability, Autosampler” value ([6]; nominal 10 ng/mL) was 11.13 ± 0.24 ng/mL. The “Stability, Freeze-Thaw” value ([6]; nominal 10 ng/mL) was 10.55 ± 0.43 ng/mL, the “Stability, Bench-Top” value ([6]; nominal 10 ng/mL) was 10.97 ± 0.29 ng/mL and the “Stability, Long-Term” value ([6]; nominal 10 ng/mL) was 10.51 ± 0.43 ng/mL. The “Stability, Autosampler” value ([6]; nominal 1500 ng/mL) was 1540.00 ± 95.71 ng/mL, the “Stability, Freeze-Thaw” value ([6]; nominal 1500 ng/mL) was 1531.67 ± 117.88 ng/mL and the “Stability, Bench-Top” value ([6]; nominal 1500 ng/mL) was 1551.67 ± 84.00 ng/mL. The “Stability, Long-Term” value ([6]; nominal 1500 ng/mL) was 1565.00 ± 123.25 ng/mL, the “Stability, Autosampler” value ([6]; nominal 3750 ng/mL) was 3961.67 ± 102.26 ng/mL and the “Stability, Freeze-Thaw” value ([6]; nominal 3750 ng/mL) was 3698.33 ± 72.78 ng/mL. The “Stability, Bench-Top” value ([6]; nominal 3750 ng/mL) was 3948.33 ± 99.88 ng/mL, the “Stability, Long-Term” value ([6]; nominal 3750 ng/mL) was 3583.33 ± 67.43 ng/mL and the AUC(0-inf) [5, 11] was 40300 ng·h/mL. The AUC(0-inf) [5, 12] was 41300 ng·h/mL, the AUC(0-t) [5, 11] was 40000 ng·h/mL and the AUC(0-t) [5, 12] was 41200 ng·h/mL. It also gave a CL/F [5, 11] of 47.7 mL/min/kg, a CL/F [5, 12] of 42 mL/min/kg and a Cmax [5, 11] of 1920 ± 298 ng/mL. For the same compound, the Cmax [5, 12] was 2200 ± 535 ng/mL, the Vd/F [5, 11] was 49 ± 18.8 L/kg and the Vd/F [5, 12] was 38.3 ± 10.1 L/kg. The half-life [5, 11] was 12.3 ± 2.23 h, the Tmax ([5]; sorafenib in rat plasma, oral single dose sorafenib 100 mg/kg alone (ISOR), n = 6) was 8.00 (7.00–8.00) h and the t1/2z ([5]; sorafenib in rat plasma, sorafenib 100 mg/kg oral co-administered with canagliflozin 10 mg/kg (IVSOR+CA), n = 6, mean ± SD) was 10.47 ± 0.94 h.
